# Measured values reported in US8217035B2, “Pyrimidine derivatives used as PI-3-kinase inhibitors” (Novartis AG, priority 2006, dated 2012).
# Where two headings read alike, the source gives them in different places.
# What was measured:
# [1] = system: A2780 ovarian cancer cells; assay: Cellular proliferation in A2780 cells, Cell Titer Glo (Biological Method 4); assay type: cell-based; conditions: Homo sapiens; ovarian cancer cell line A2780
# Method in brief: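 A2780 cells seeded at 1,000/well in DMEM with 10% FBS, at least 2 h before compound, then exposed 72 h at 37 °C, 5% CO2. Viable cells measured by Cell Titer Glo luminescence; EC50 calculated from duplicate conditions.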
# [2] = system: pSer473 Akt in A2780 cells; assay: pSer473 Akt assay to monitor PI3K pathway in A2780 cells (Biological Method 2, MSD); assay type: cell-based; conditions: Homo sapiens, inhibition of Akt phosphorylation
# Method: In this method, an assay for measuring the PI3K-mediated pSer473-Akt status after treatment with representative inhibitor compounds of the invention is described.
# A2780 cells were cultured in DMEM supplemented with 10% FBS. L-glutamine, sodium pyruvate, and antibiotics. Cells were plated in the same medium at a density of 15,000 cells per well into 96 well tissue culture plates, with outside wells vacant, and allowed to adhere overnight.
# Test compounds supplied in DMSO were diluted further into DMSO at 500 times the desired final concentrations before dilution into culture media to 2 times the final concentrations. Equal volumes of 2× compounds were added to the cells in 96 well plates and incubated at 37° C. for one hour. The media and compounds were then removed, the plates chilled and cells lysed in a lysis buffer (150 mM NaCl, 20 mM Tris pH 7.5, 1 mM EDTA, 1 mM EGTA, 1% Triton X-100) supplemented with phosphatase and protease inhibitors. After thorough mixing, lysates were transferred to both pSer473Akt and total Akt assay plates from Meso Scale Discovery (MSD), and incubated overnight with shaking at 4° C.
# The assays were read on a SECTOR Imager 6000 instrument (Meso Scale Discovery). Ratios of the signal from pSer473Akt and total Akt assays were used to correct for any variability and the percent inhibition of pSer473Akt from the total signal seen in cells treated with compound versus DMSO alone was calculated and used to determine EC50 values for each compound.
# PI3 kinase alpha = PI3 kinase alpha (Homo sapiens, UniProt P42336); assay: PI3K ATP depletion assay (Biological Method 1, Assay 3; KinaseGlo luminescence); assay type: biochemical; conditions: ATP depletion assay, read-out: PI3 Kinase Alpha, IC50
# Chain of PI3 kinase alpha (P42336 whole entry): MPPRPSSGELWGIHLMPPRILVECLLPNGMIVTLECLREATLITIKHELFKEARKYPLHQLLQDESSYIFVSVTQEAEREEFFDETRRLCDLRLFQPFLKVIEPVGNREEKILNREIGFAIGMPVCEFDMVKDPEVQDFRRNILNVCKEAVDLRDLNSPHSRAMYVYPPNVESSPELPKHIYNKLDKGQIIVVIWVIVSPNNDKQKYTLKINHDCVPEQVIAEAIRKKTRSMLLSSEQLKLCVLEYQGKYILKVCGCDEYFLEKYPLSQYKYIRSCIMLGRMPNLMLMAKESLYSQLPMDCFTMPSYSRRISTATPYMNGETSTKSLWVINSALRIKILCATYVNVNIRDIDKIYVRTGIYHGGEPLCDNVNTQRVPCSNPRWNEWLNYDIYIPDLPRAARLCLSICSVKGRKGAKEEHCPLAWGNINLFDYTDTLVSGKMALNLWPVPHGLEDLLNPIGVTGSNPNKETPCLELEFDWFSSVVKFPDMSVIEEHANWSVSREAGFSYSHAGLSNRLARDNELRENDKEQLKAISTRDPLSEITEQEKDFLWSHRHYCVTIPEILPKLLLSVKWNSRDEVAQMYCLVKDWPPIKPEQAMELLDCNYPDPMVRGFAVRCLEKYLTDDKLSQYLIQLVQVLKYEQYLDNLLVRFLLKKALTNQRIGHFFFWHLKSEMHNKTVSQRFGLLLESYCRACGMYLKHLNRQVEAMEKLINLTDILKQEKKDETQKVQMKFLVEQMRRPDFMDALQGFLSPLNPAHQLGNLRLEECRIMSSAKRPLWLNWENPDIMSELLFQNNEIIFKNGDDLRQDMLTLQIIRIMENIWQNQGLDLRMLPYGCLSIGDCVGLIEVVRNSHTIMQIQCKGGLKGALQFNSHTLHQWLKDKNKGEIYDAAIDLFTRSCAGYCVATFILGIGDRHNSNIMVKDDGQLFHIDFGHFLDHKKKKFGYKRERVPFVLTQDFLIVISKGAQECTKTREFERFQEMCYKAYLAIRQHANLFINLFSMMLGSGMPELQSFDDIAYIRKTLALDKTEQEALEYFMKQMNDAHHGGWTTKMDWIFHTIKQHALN
# Chain of PI3 kinase alpha (P27986 whole entry partner): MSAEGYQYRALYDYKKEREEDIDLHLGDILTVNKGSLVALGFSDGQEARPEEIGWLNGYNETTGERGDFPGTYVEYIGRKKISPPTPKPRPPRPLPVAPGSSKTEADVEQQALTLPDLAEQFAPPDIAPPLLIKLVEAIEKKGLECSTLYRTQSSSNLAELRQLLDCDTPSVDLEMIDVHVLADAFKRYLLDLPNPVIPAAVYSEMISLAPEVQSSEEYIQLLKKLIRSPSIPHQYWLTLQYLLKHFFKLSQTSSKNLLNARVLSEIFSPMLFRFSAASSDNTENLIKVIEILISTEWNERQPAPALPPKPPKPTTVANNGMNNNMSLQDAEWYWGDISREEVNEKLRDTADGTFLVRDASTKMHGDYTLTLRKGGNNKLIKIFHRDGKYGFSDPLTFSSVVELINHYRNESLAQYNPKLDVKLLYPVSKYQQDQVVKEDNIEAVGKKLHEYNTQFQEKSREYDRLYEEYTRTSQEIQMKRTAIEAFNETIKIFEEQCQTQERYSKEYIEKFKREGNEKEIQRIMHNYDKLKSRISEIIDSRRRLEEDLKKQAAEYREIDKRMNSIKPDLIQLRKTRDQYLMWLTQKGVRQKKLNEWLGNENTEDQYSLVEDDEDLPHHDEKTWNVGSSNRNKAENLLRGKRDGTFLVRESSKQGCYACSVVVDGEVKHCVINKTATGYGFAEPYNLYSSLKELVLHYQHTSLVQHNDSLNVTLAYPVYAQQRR
# Method in brief: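 Compound in DMSO was mixed with 10 nM PI3 kinase and 5 μg/mL phosphatidylinositol, and the reaction was started with 2 μM ATP. It ran to about 50% ATP depletion and was stopped with KinaseGlo.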
SMILES,EC50 [1],EC50 ([2]; A2780 cells),IC50 (PI3 kinase alpha),"EC50 ([2]; A2780, Biological Method 2)",IC50 (PI3 kinase alpha; Biological Method 1)
Nc1ncc(-c2cc(Nc3cnc4ccccc4c3)nc(N3CCOCC3)n2)cn1 [Compound 1],< 1000 nM,< 1000 nM,–,–,–
CS(=O)(=O)Nc1ncccc1-c1cc(-c2ccc(N)nc2)nc(N2CCOCC2)n1 [Compound 3],< 1000 nM,< 1000 nM,< 1000 nM,–,–
Nc1cc(F)c(-c2cc(Nc3cnc4ccccc4c3)nc(N3CCOCC3)n2)cn1 [Compound 4],< 1000 nM,< 1000 nM,< 1000 nM,–,–
N#Cc1cc(N)ncc1-c1cc(Nc2cnc3ccccc3c2)nc(N2CCOCC2)n1 [Compound 5],< 1000 nM,< 10000 nM,–,–,–
COc1cccc2ncc(Nc3cc(-c4cnc(N)nc4)nc(N4CCOCC4)n3)cc12 [Compound 7],< 1000 nM,< 1000 nM,< 1000 nM,–,–
Nc1ncc(-c2cc(Oc3cccnc3)nc(N3CCOCC3)n2)cn1 [Compound 8],< 1000 nM,< 1000 nM,< 1000 nM,–,–
Nc1ncc(-c2cc(Nc3ccc(N4CCNCC4)nc3)nc(N3CCOCC3)n2)cn1 [Compound 9],< 1000 nM,< 1000 nM,< 1000 nM,–,–
CC(C)N1CCC(Oc2ccc(Nc3cc(-c4cnc(N)cc4C(F)(F)F)nc(N4CCOCC4)n3)cn2)CC1 [Compound 11],< 1000 nM,< 1000 nM,< 1000 nM,–,–
CCN(CC)Cc1cnc(Nc2cc(-c3cnc(N)cc3C(F)(F)F)nc(N3CCOCC3)n2)s1 [Compound 12],< 10000 nM,< 1000 nM,< 1000 nM,–,–
CCN(CC)CCc1csc(Nc2cc(-c3cnc(N)cc3C(F)(F)F)nc(N3CCOCC3)n2)n1 [Compound 13],< 1000 nM,< 1000 nM,< 1000 nM,–,–
Nc1ncc(-c2cc(N3CCOC(c4ccccc4)C3)nc(N3CCOCC3)n2)cn1 (stereo not shown) [Compound 15],< 1000 nM,< 1000 nM,< 1000 nM,–,–
Nc1cc(C(F)(F)F)c(-c2cc(OC3CCOCC3)nc(N3CCOCC3)n2)cn1 [Compound 24],< 1000 nM,< 1000 nM,< 1000 nM,–,–
Nc1cc(C(F)(F)F)c(-c2cc(O[C@@H]3CCOC3)nc(N3CCOCC3)n2)cn1 [Compound 25],< 10000 nM,< 1000 nM,< 1000 nM,–,–
CC(C)(C)OC(=O)N1CCC(Oc2cc(-c3cnc(N)nc3C(F)(F)F)nc(N3CCOCC3)n2)CC1 [Compound 27],< 1000 nM,< 1000 nM,< 1000 nM,–,–
CC(C)(C)OC(=O)N1CCC(Oc2cc(-c3cnc(N)nc3N)nc(N3CCOCC3)n2)CC1 [Compound 28],< 1000 nM,< 1000 nM,< 1000 nM,–,–
CC(=O)N1CCC[C@@H](Oc2cc(-c3cnc(N)nc3N)nc(N3CCOCC3)n2)C1 [Compound 29],< 1000 nM,< 1000 nM,< 1000 nM,–,–
CC(=O)N1CCC(Oc2cc(-c3cnc(N)[nH]c3=O)nc(N3CCOCC3)n2)CC1 [Compound 30],< 1000 nM,< 1000 nM,< 1000 nM,–,–
COC(=O)N1CCC(Oc2cc(-c3cnc(N)[nH]c3=O)nc(N3CCOCC3)n2)CC1 [Compound 31],< 1000 nM,< 1000 nM,< 1000 nM,–,–
CC(C)OC(=O)N1CCC(Oc2cc(-c3cnc(N)[nH]c3=O)nc(N3CCOCC3)n2)CC1 [Compound 32],< 1000 nM,< 1000 nM,< 1000 nM,–,–
Nc1ncc(-c2cc(Nc3ccncc3)nc(N3CCOCC3)n2)c(C(F)(F)F)n1 [Compound 33],< 1000 nM,< 1000 nM,< 1000 nM,–,–
Nc1ncc(-c2cc(OC3CCN(C(=O)OCc4ccccc4)CC3)nc(N3CCOCC3)n2)c(=O)[nH]1 [Compound 34],< 1000 nM,< 1000 nM,< 1000 nM,–,–
CN1CCC(Oc2ccc(Nc3cc(-c4cnc(N)nc4)nc(N4CCOCC4)n3)cn2)C1 (stereo not shown) [Compound 35],< 1000 nM,< 1000 nM,< 1000 nM,–,–

SMILES,EC50 [1],EC50 ([2]; A2780 cells),IC50 (PI3 kinase alpha),"EC50 ([2]; A2780, Biological Method 2)",IC50 (PI3 kinase alpha; Biological Method 1)
CN(C)CCOc1ccc(Nc2cc(-c3cnc(N)nc3)nc(N3CCOCC3)n2)cn1 [Compound 36],< 1000 nM,< 1000 nM,< 1000 nM,–,–
CN1CCC(Oc2ccc(Nc3cc(-c4cnc(N)nc4)nc(N4CCOCC4)n3)cn2)CC1 [Compound 37],< 1000 nM,< 1000 nM,–,–,–
Nc1ncc(-c2cc(Nc3ccc4nccnc4c3)nc(N3CCOCC3)n2)cn1 [Compound 38],< 1000 nM,< 1000 nM,< 1000 nM,–,–
Nc1ncc(-c2cc(O[C@H]3CCOC3)nc(N3CCOCC3)n2)c(=O)[nH]1 [Compound 39],< 1000 nM,< 1000 nM,< 1000 nM,–,–
CCN(CC)Cc1cnc(Nc2cc(-c3cnc(N)nc3C(F)(F)F)nc(N3CCOCC3)n2)s1 [Compound 40],< 1000 nM,< 1000 nM,< 1000 nM,–,–
Nc1ncc(-c2cc(N3CCOCC3)nc(N3CCOCC3)n2)c(=O)[nH]1 [Compound 77],< 1000 nM,< 1000 nM,–,–,–
Nc1ncc(-c2cc(N3CCOCC3)nc(N3CCOCC3)n2)c(C(F)(F)F)n1 [Compound 85],< 1000 nM,< 1000 nM,–,–,–
Cc1nc(N)ncc1-c1cc(Nc2cnc3ccccc3c2)nc(N2CCOCC2)n1 [Compound 96],< 1000 nM,< 1000 nM,–,–,–
Nc1ncc(-c2cc(N3CCOCC3)nc(N3CCOCC3)n2)cn1 [Compound 100],< 1000 nM,< 1000 nM,–,–,–
Nc1ncc(-c2cc(Nc3ccc(Oc4ccccc4)nc3)nc(N3CCOCC3)n2)cn1 [Compound 107],< 10000 nM,< 1000 nM,–,–,–
Nc1cc(Cl)c(-c2cc(N3CCOCC3)nc(N3CCOCC3)n2)cn1 [Compound 114],< 10000 nM,< 1000 nM,–,–,–
Nc1ncc(-c2ccnc(N3CCOCC3)n2)cn1 [Compound 132],< 10000 nM,< 1000 nM,–,–,–
Nc1ncc(-c2cc(Nc3cnc4ccccc4c3)nc(N3CCOCC3)n2)c(N)n1 [Compound 147],< 1000 nM,< 1000 nM,–,–,–
N#Cc1cc(N)ncc1-c1cc(N2CCOCC2)nc(N2CCOCC2)n1 [Compound 162],< 1000 nM,< 1000 nM,–,–,–
Nc1cc(Cl)c(-c2cc(Nc3cnc4ccccc4c3)nc(N3CCOCC3)n2)cn1 [Compound 175],< 1000 nM,< 1000 nM,–,–,–
Nc1ncc(-c2cc(Nc3cnc4ccccc4c3)nc(N3CCOCC3)n2)c(C(F)(F)F)n1 [Compound 192],< 1000 nM,< 1000 nM,–,–,–
Nc1cc(C(F)(F)F)c(-c2cc(Nc3cnc4ccccc4c3)nc(N3CCOCC3)n2)cn1 [Compound 193],< 1000 nM,< 1000 nM,–,–,–
CN(C)CCOc1ccc(Nc2cc(-c3ccc(N)nc3)nc(N3CCOCC3)n2)cn1 [Compound 198],–,–,–,< 1000 nM,< 1000 nM
Cc1c(-c2cnc(N)nc2)nc(N2CCOCC2)nc1-c1cccc(S(C)(=O)=O)c1 [Compound 548],< 10000 nM,–,< 1000 nM,–,–
Cc1c(-c2ccc(S(C)(=O)=O)cc2)nc(N2CCOCC2)nc1-c1cnc(N)nc1 [Compound 549],< 10000 nM,–,< 1000 nM,–,–
Nc1ccc(-c2cc(N3CCOCC3)nc(N3CCOCC3)n2)c(=O)[nH]1 [Compound 551],< 10000 nM,–,< 1000 nM,–,–
Nc1cc(C(F)(F)F)c(-c2cc(Nc3nc(-c4ccccc4)cs3)nc(N3CCOCC3)n2)cn1 [Compound 554],< 10000 nM,–,< 1000 nM,–,–
